These compounds were tested against CDK2 (human) (UniProt P24941) (assay: Enzyme Assay).

IC50, < 1 µM:
O=C(Nc1c[nH]nc1-c1nc2cc(CN3CCOCC3)ccc2[nH]1)NN1CCOCC1
O=C(CC1CC1)Nc1c[nH]nc1-c1nc2cc(CN3CCOCC3)ccc2[nH]1
COc1ccc(C#N)cc1C(=O)Nc1c[nH]nc1-c1nc2cc(CN3CCOCC3)ccc2[nH]1
O=C(Nc1c[nH]nc1-c1nc2cc(CN3CCOCC3)ccc2[nH]1)NN1CCCC1
O=C(Nc1c[nH]nc1-c1nc2cc(CN3CCOCC3)ccc2[nH]1)Nc1c(F)cc(F)cc1F
O=C(Nc1ccc(F)cc1F)Nc1c[nH]nc1-c1nc2cc(CN3CCOCC3)ccc2[nH]1
CN(C)NC(=O)Nc1c[nH]nc1-c1nc2cc(CN3CCOCC3)ccc2[nH]1
COc1cc2nc(-c3n[nH]cc3NC(=O)c3ccoc3CN(C)C)[nH]c2cc1OC
COc1cc2nc(-c3n[nH]cc3NC(=O)c3cc(Cl)cc(N4CCN(C)CC4)c3)[nH]c2cc1OC
O=C(Nc1c[nH]nc1-c1nc2cc(CN3CCOCC3)ccc2[nH]1)C1CCCO1 (configuration not stated)
O=C(Nc1cc(F)ccc1F)Nc1c[nH]nc1-c1nc2cc(CN3CCOCC3)ccc2[nH]1
COc1ccc(Cl)cc1C(=O)Nc1c[nH]nc1-c1nc2cc(CN3CCN(C)CC3)ccc2[nH]1

— the Kinase Knowledgebase extract (Sharma et al. 2016)
